Data from article PMC10135569, “Does Enhanced Structural Maturity of hiPSC-Cardiomyocytes Better for the Detection of Drug-Induced Cardiotoxicity?” (Biomolecules, 2023).
Read-outs that look alike come from different tables or passages of the source.

Tests used:
[1] = tested on: hiPSC-CMs (iCell2 Cardiomyocytes) 2D monolayers; assay: Membrane potential (action potential) recordings with FluoVolt voltage-sensitive dye on the CellOPTIQ platform; type: cell-based, human; conditions: for activity at 0.1 µM / activity at 0.3 µM: Homo sapiens, Cardiomyocyte, 0.5 h, 30 min, delta over DMSO 0.1%
Method in brief: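 iCell2 hiPSC-CM monolayers (50,000 cells/well on fibronectin or Matrix Plus, days 5–6) were loaded with FluoVolt (1:1000, 20 min, 37 °C) and imaged at 37 °C with 470 nm excitation and 510–560 nm emission sampled at 10 kHz. Spontaneous action potentials were recorded for 10 s at baseline and 30 min after drug, with one of four concentrations per well (n = 8).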

[2] = tested on: hiPSC-CMs (iCell2 Cardiomyocytes) 2D monolayers; assay: Contractility measurements using video imaging (ContractilityTool / MUSCLEMOTION); type: cell-based, human; conditions: for activity at 0.1 µM / activity at 0.3 µM / activity at 1 µM / activity at 3 µM: Homo sapiens, Cardiomyocyte, 0.5 h, 30 min, delta over DMSO 0.1%
Method in brief: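 Monolayers on fibronectin or Matrix Plus coating, tested on days 5–6 in serum-free medium. Four concentrations, one per well, n = 8, with vehicle control.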

[3] = listed in Supplementary Table S1; no reference given; cited from earlier work
[4] = MM monolayer, read-out: APD30 (%DD)
[5] = MM monolayer, read-out: APD90 (%DD)
[6] = MM monolayer, read-out: CL (%DD)
[7] = MM monolayer, read-out: Trise (%DD)
[8] = read-out: APD30 (%DD), FM monolayer
[9] = read-out: APD90 (%DD), FM monolayer
[10] = read-out: CL (%DD), FM monolayer
[11] = FM monolayer, read-out: CtAmp (%DD)
[12] = FM monolayer, read-out: CtD50 (%DD)
[13] = MM monolayer, read-out: CtAmp (%DD)
[14] = MM monolayer, read-out: CtD50 (%DD)

Which activity at 0.1 µM ([1]; FM monolayer, read-out: Trise (%DD)) does the source give for `C[C@H]1O[C@@H](O[C@H]2[C@@H](O)C[C@H](O[C@H]3[C@@H](O)C[C@H](O[C@H]4CC[C@@]5(C)[C@H](CC[C@@H]6[C@@H]5C[C@@H](O)[C@]5(C)[C@@H](C7=CC(=O)OC7)CC[C@]65O)C4)O[C@@H]3C)O[C@@H]2C)C[C@H](O)[C@@H]1O` [Digoxin] here?
Its activity at 0.1 µM is 100 ± 21.3%.

And the activity at 0.1 µM [1, 4]?
The activity at 0.1 µM was 91 ± 1.2%.

And the activity at 0.1 µM [1, 5]?
Its activity at 0.1 µM is 101 ± 1.3%.

And the activity at 0.1 µM [1, 6]?
The activity at 0.1 µM was 102 ± 0.4%.

And the activity at 0.1 µM [1, 7]?
The activity at 0.1 µM was 127 ± 10.8%.

What about the activity at 0.3 µM [1, 4] of the same molecule?
The activity at 0.3 µM was 68 ± 2.5%.

And the activity at 0.3 µM [1, 5]?
Its activity at 0.3 µM is 89 ± 1%.

What about the activity at 0.3 µM [1, 6] of the same molecule?
Its activity at 0.3 µM is 100 ± 0.8%.

And the activity at 0.3 µM [1, 7]?
Its activity at 0.3 µM is 161 ± 38.2%.

What about the activity at 0.1 µM [1, 8] of the same molecule?
Its activity at 0.1 µM is 84 ± 1.8%.

What about the activity at 0.3 µM [1, 8] of the same molecule?
The activity at 0.3 µM was 65 ± 2.8%.

And the activity at 0.1 µM [1, 9]?
The activity at 0.1 µM was 95 ± 0.6%.

And the activity at 0.3 µM [1, 9]?
Its activity at 0.3 µM is 88 ± 2.1%.

What about the activity at 0.1 µM [1, 10] of the same molecule?
The activity at 0.1 µM was 98 ± 0.7%.

And the activity at 0.3 µM [1, 10]?
The activity at 0.3 µM was 98 ± 0.9%.

What about the activity at 0.3 µM ([1]; read-out: Trise (%DD), FM monolayer) of the same molecule?
The activity at 0.3 µM was 74 ± 9.2%.

And the “effect on APD (in words)” value ([1]; both groups)?
Its value is “decreased”.

What about the “electrical activity of the monolayers at higher concentrations” value ([1]; higher concentrations, FM and MM) of the same molecule?
The value was “electrical quiescence”.

What about the activity at 0.1 µM [2, 11] of the same molecule?
The activity at 0.1 µM was 88 ± 6.1%.

And the activity at 0.1 µM [2, 12]?
The activity at 0.1 µM was 90 ± 1.3%.

What about the activity at 0.3 µM [2, 11] of the same molecule?
The activity at 0.3 µM was 18 ± 11.1%.

What about the activity at 0.3 µM [2, 12] of the same molecule?
Its activity at 0.3 µM is 51 ± 15.9%.

And the activity at 0.1 µM [2, 13]?
The activity at 0.1 µM was 127 ± 26.2%.

What about the activity at 0.1 µM [2, 14] of the same molecule?
The activity at 0.1 µM was 97 ± 2%.

What about the activity at 0.3 µM [2, 13] of the same molecule?
The activity at 0.3 µM was 12 ± 3.3%.

What about the activity at 0.3 µM [2, 14] of the same molecule?
Its activity at 0.3 µM is 43 ± 1.8%.

What about the activity at 1 µM [2, 13] of the same molecule?
The activity at 1 µM was 13 ± 5.3%.

What about the activity at 1 µM [2, 14] of the same molecule?
Its activity at 1 µM is 40 ± 3.6%.

What about the activity at 3 µM [2, 13] of the same molecule?
The activity at 3 µM was 7 ± 1.9%.

What about the activity at 3 µM [2, 14] of the same molecule?
The activity at 3 µM was 43 ± 3.4%.

And the “increasing the amplitude of contraction (positive inotropy)” value ([2]; both experimental groups)?
Its value is “ineffective”.

What about the “Free Cmax” value [3] of the same molecule?
The value was 2 nM.
